# Measured values: patent US20190127366A1 (LifeSci Pharmaceuticals, Inc., priority 2015, published 2019)
# Biological target: T1, human complement factor D (Homo sapiens, UniProt P00746)
# T1 construct: purchased R&D Systems 1824-SE
# Assay: In vitro enzyme inhibition (Z-Lys-SBzl/DTNB absorbance assay)
# Assay type: biochemical
# Conditions: Complement Factor D (R&D Systems), substrate Z-Lys-SBzl, A405 nm; read-out: CFD IC50
# Experimental: The ability of the compounds disclosed herein to inhibit human complement factor D inhibitory activity was quantified according to the 12-step protocol provided below. • 1. Prepare assay buffer: 50 mM Tris/HCl, pH 7.5, 1 M NaCl. • 2. Dilute 10 mM Complement Factor D inhibitor Nafamostat Mesilate (Selleckchem, Catalog #S1386) solution from 10000 μM to 9.77 μM in 100% DMSO, 8 concentrations. Then dilute the serial concentrations of Nafamostat Mesilate 20-fold in assay buffer. • 3. Add 10 μl diluted Nafamostat Mesilate duplicated into each of the inhibitor control well of a 96-well plate (Corning, Catalog #3599). Final concentrations were 50 μM, 25 μM, 12.5 μM, 6.25 μM, 3.125 μM, 0.781 μM, 0.195 μM and 0.049 μM. 0.5% DMSO was in each well finally. • 4. Dilute 20 mM test compounds from 10000 μM to […] in 100% DMSO, 6-fold dilution, 8 concentrations. Then dilute the serial concentrations of test compounds 20-fold in assay buffer. • 5. Add 10 μl diluted test compounds duplicated into the 96-well plate. Final concentrations were 50 μM, 8.33 μM, 1.39 μM, 0.23 μM, 0.0386 μM, 0.0064 μM, 0.0011 μM and 0.0002 μM. 0.5% DMSO was in each well finally. • 6. Dilute 20 mM substrate Z-Lys-SBzl (Bachem, Cat #M-1300) to 200 μM in assay buffer with 200 μM DTNB(Sigma, Catalog #D8130). • 7. Dilute 738 ng/μL Complement Factor D (R&D Systems, Catalog #1824-SE) to 6.25 ng/μL in assay buffer. Add 40 μl diluted Complement Factor D in the 96-well plate. • 8. Positive control well contains Complement Factor D without test compound. Negative control well contains neither Complement Factor D nor test compound. Using assay buffer, bring the total volume of all controls to 50 μl. • 9. Pre-incubate the plate for 5 min at room temperature. • 10. Add 50 μl of diluted substrate/DTNB mixture into each well. Mix the reagents completely by shaking the plate gently for 30 sec. • 11. For kinetic reading: Immediately start measuring absorbance (A405 nm) continuously and record data every 30sec for 60 min. • 12. Data analysis • Inhibition activity of compound was evaluated by IC50. IC50 was calculated according the dose-response curve of compound fitted using GraphPadPrism with “log(inhibitor)-response (variable slope)” equation. • % inhibition was calculated by using following equation:
# [formula] • Mean(NC): The average value of the negative control wells' A405 nm values. • Mean(PC): The average value of the positive control wells' A405 nm values.
# The ability of the compounds in Table 2 to inhibit human complement factor D inhibitory activity was determined.
# T1 sequence (P00746 26-253): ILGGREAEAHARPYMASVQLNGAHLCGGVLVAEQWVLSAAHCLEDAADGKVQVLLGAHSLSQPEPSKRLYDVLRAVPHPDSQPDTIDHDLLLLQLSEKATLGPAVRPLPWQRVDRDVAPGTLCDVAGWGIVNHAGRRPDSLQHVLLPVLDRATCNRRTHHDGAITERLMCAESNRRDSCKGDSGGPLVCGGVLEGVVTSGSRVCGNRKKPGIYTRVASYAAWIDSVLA
row,SMILES,IC50 [nM]
1,"NC(=O)c1nn(CC(=O)N2[C@@H]3CC[C@@H](C3)[C@H]2C(=O)Nc2ncccc2Cl)c2ccccc12 [Example 54, 1-(2-((1R,3S,4S)-3-((3-chloropyridin-2-yl)carbamoyl)-2-azabicyclo[2.2.1]heptan-2-yl)-2-oxoethyl)-1H-indazole-3-carboxamide]",> 10000
2,"NC(=O)c1nn(CC(=O)N2[C@@H]3CC[C@@H](C3)[C@H]2C(=O)Nc2ccnc(Cl)c2)c2ccccc12 [Example 57, 1-(2-((1R,3S,4S)-3-((2-chloropyridin-4-yl)carbamoyl)-2-azabicyclo[2.2.1]heptan-2-yl)-2-oxoethyl)-1H-indazole-3-carboxamide]",1000 to 10000
3,"Cc1ccc2c(c1)c(C(N)=O)nn2CC(=O)N1[C@@H]2CC[C@@H](C2)[C@H]1C(=O)NCc1cccc(Cl)c1F [Example 60, 1-(2-((1R,3S,4S)-3-((3-chloro-2-fluorobenzyl)carbamoyl)-2-azabicyclo[2.2.1]heptan-2-yl)-2-oxoethyl)-5-methyl-1H-indazole-3-carboxamide]",100 to 1000
4,"NC(=O)c1nn(CC(=O)N2[C@@H]3CC[C@@H](C3)[C@H]2C(=O)NCc2ccc(F)c(Cl)c2)c2ccccc12 [Example 63, 1-(2-((1R,3S,4S)-3-((3-chloro-4-fluorobenzyl)carbamoyl)-2-azabicyclo[2.2.1]heptan-2-yl)-2-oxoethyl)-1H-indazole-3-carboxamide 2,2,2-trifluoroacetate]",1000 to 10000
5,"NC(=O)c1nn(CC(=O)N2[C@@H]3CC[C@@H](C3)[C@H]2C(=O)NCc2cc(F)cc(Cl)c2)c2ccccc12 [Example 64, 1-(2-((1R,3S,4S)-3-((3-chloro-5-fluorobenzyl)carbamoyl)-2-azabicyclo[2.2.1]heptan-2-yl)-2-oxoethyl)-1H-indazole-3-carboxamide 2,2,2-trifluoroacetate]",100 to 1000
6,"Cc1cc(C)nc(NC(=O)[C@@H]2[C@H]3CC[C@H](C3)N2C(=O)Cn2nc(C(N)=O)c3ccccc32)c1 [Example 67, 1-(2-((1R,3S,4S)-3-((4,6-dimethylpyridin-2-yl)carbamoyl)-2-azabicyclo[2.2.1]heptan-2-yl)-2-oxoethyl)-1H-indazole-3-carboxamide 2,2,2-trifluoroacetate]",> 10000
7,"NC(=O)c1nn(CC(=O)N2[C@@H]3CC[C@@H](C3)[C@H]2C(=O)NCc2cc(Cl)ccc2Cl)c2ccccc12 [Example 69, 1-(2-((1R,3S,4S)-3-((2,5-dichlorobenzyl)carbamoyl)-2-azabicyclo[2.2.1]heptan-2-yl)-2-oxoethyl)-1H-indazole-3-carboxamide]",1000 to 10000
8,"NC(=O)c1nn(CC(=O)N2[C@@H]3CC[C@@H](C3)[C@H]2C(=O)NCc2ccc(Cl)c(Cl)c2)c2ccccc12 [Example 72, 1-(2-((1R,3S,4S)-3-((3,4-dichlorobenzyl)carbamoyl)-2-azabicyclo[2.2.1]heptan-2-yl)-2-oxoethyl)-1H-indazole-3-carboxamide]",1000 to 10000
9,"NC(=O)c1nn(CC(=O)N2[C@@H]3CC[C@@H](C3)[C@H]2C(=O)Nc2cccc(Cl)n2)c2ccc([N+](=O)[O-])cc12 [Example 73, 1-(2-((1R,3S,4S)-3-((6-chloropyridin-2-yl)carbamoyl)-2-azabicyclo[2.2.1]heptan-2-yl)-2-oxoethyl)-5-nitro-1H-indazole-3-carboxamide]",1000 to 10000
10,"COc1ccc2c(c1)c(C(N)=O)nn2CC(=O)N1[C@@H]2CC[C@@H](C2)[C@H]1C(=O)Nc1cccc(Cl)n1 [Example 74, 1-(2-((1R,3S,4S)-3-((6-chloropyridin-2-yl)carbamoyl)-2-azabicyclo[2.2.1]heptan-2-yl)-2-oxoethyl)-5-methoxy-1H-indazole-3-carboxamide]",1000 to 10000
11,"NC(=O)c1nn(CC(=O)N2[C@@H]3CC[C@@H](C3)[C@H]2C(=O)Nc2cccc(Cl)n2)c2ccc(N)cc12 [Example 75, 5-amino-1-(2-((1R,3S,4S)-3-((6-chloropyridin-2-yl)carbamoyl)-2-azabicyclo[2.2.1]heptan-2-yl)-2-oxoethyl)-1H-indazole-3-carboxamide]",100 to 1000
12,"COc1ccc2c(c1)c(C(C)=O)nn2CC(=O)N1[C@@H]2CC[C@@H](C2)[C@H]1C(=O)Nc1cccc(Cl)n1 [Example 79, (1R,3S,4S)-2-(2-(3-acetyl-5-methoxy-1H-indazol-1-yl)acetyl)-N-(6-chloropyridin-2-yl)-2-azabicyclo[2.2.1]heptane-3-carboxamide]",100 to 1000
13,"N#Cc1ccc2c(c1)c(C(N)=O)nn2CC(=O)N1[C@@H]2CC[C@@H](C2)[C@H]1C(=O)Nc1cccc(Cl)n1 [Example 81, 1-(2-((1R,3S,4S)-3-((6-chloropyridin-2-yl)carbamoyl)-2-azabicyclo[2.2.1]heptan-2-yl)-2-oxoethyl)-5-cyano-1H-indazole-3-carboxamide]",100 to 1000

# The next lines start with the values.
row,IC50 [nM],SMILES
1,1000 to 10000,"NC(=O)c1nn(CC(=O)N2[C@@H]3CC[C@@H](C3)[C@H]2C(=O)Nc2cccc(F)n2)c2ccccc12 [Example 53, 1-(2-((1R,3S,4S)-3-((6-fluoropyridin-2-yl)carbamoyl)-2-azabicyclo[2.2.1]heptan-2-yl)-2-oxoethyl)-1H-indazole-3-carboxamide]"
2,> 10000,"NC(=O)c1nn(CC(=O)N2[C@@H]3CC[C@@H](C3)[C@H]2C(=O)Nc2cc(C(F)(F)F)ccn2)c2ccccc12 [Example 55, 1-(2-oxo-2-((1R,3S,4S)-3-((4-(trifluoromethyl)pyridin-2-yl)carbamoyl)-2-azabicyclo[2.2.1]heptan-2-yl)ethyl)-1H-indazole-3-carboxamide]"
3,1000 to 10000,"NC(=O)c1nn(CC(=O)N2[C@@H]3CC[C@@H](C3)[C@H]2C(=O)Nc2cncc(Cl)c2)c2ccccc12 [Example 58, 1-(2-((1R,3S,4S)-3-((5-chloropyridin-3-yl)carbamoyl)-2-azabicyclo[2.2.1]heptan-2-yl)-2-oxoethyl)-1H-indazole-3-carboxamide]"
4,100 to 1000,"Cc1ccc2c(c1)c(C(N)=O)nn2CC(=O)N1[C@@H]2CC[C@@H](C2)[C@H]1C(=O)Nc1cccc(Cl)n1 [Example 61, 1-(2-((1R,3S,4S)-3-((6-chloropyridin-2-yl)carbamoyl)-2-azabicyclo[2.2.1]heptan-2-yl)-2-oxoethyl)-5-methyl-1H-indazole-3-carboxamide]"
5,100 to 1000,"NC(=O)c1nn(CC(=O)N2[C@@H]3CC[C@@H](C3)[C@H]2C(=O)Nc2cccc(Cl)n2)c2ccc(F)cc12 [Example 62, 1-(2-((1R,3S,4S)-3-((6-chloropyridin-2-yl)carbamoyl)-2-azabicyclo[2.2.1]heptan-2-yl)-2-oxoethyl)-5-fluoro-1H-indazole-3-carboxamide]"
6,100 to 1000,"Cc1ccc(NC(=O)[C@@H]2[C@H]3CC[C@H](C3)N2C(=O)Cn2nc(C(N)=O)c3ccccc32)nc1Cl [Example 68, 1-(2-((1R,3S,4S)-3-((6-chloro-5-methylpyridin-2-yl)carbamoyl)-2-azabicyclo[2.2.1]heptan-2-yl)-2-oxoethyl)-1H-indazole-3-carboxamide 2,2,2-trifluoroacetate]"
7,100 to 1000,"NC(=O)c1nn(CC(=O)N2[C@@H]3CC[C@@H](C3)[C@H]2C(=O)NCc2cccc(Cl)c2Cl)c2ccccc12 [Example 70, 1-(2-((1R,3S,4S)-3-((2,3-dichlorobenzyl)carbamoyl)-2-azabicyclo[2.2.1]heptan-2-yl)-2-oxoethyl)-1H-indazole-3-carboxamide]"
8,100 to 1000,"NC(=O)c1nn(CC(=O)N2[C@@H]3CC[C@@H](C3)[C@H]2C(=O)Nc2ccc(Cl)c(Cl)n2)c2ccccc12 [Example 76, 1-(2-((1R,3S,4S)-3-((5,6-dichloropyridin-2-yl)carbamoyl)-2-azabicyclo[2.2.1]heptan-2-yl)-2-oxoethyl)-1H-indazole-3-carboxamide]"
9,100 to 1000,"COC(=O)c1ccc2c(c1)c(C(N)=O)nn2CC(=O)N1[C@@H]2CC[C@@H](C2)[C@H]1C(=O)Nc1cccc(Cl)n1 [Example 78, methyl 3-carbamoyl-1-(2-((1R,3S,4S)-3-((6-chloropyridin-2-yl)carbamoyl)-2-azabicyclo[2.2.1]heptan-2-yl)-2-oxoethyl)-1H-indazole-5-carboxylate]"
